Results on one cell line are retold here after the supplement of paper PMC10307832.

Holding throughout (assay): relative viability (nuclei count vs DMSO), 5 days (fraction); higher = more cells survive
Compound in experiment [1]: C1=CC=C2C(=C1)C=CC(=C2SSC3=C(C=CC4=CC=CC=C43)O)O [IPA-3] + Nc1ncn([C@H]2C[C@H](O)[C@@H](CO)O2)c(=O)n1 [Decitabine] (partner 2 µM)
In a few lines: (§1)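 Relative viability was taken as the ratio of nuclei in treated wells to nuclei in vehicle wells. Lung cancer cell lines in 1536-well plates received compounds by pin tool one day after seeding, either one drug alone or a fixed anchor-drug dose plus five library-drug doses (not always all listed) in √10 steps. Nuclei were counted on 4× images after 5 days of treatment, and values are medians of duplicate plates.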

Compound in experiment [2]: Cc1ccc(-n2nc(C(C)(C)C)cc2NC(=O)Nc2ccc(OCCN3CCOCC3)c3ccccc23)cc1 [Doramapimod] + O=C(c1cc(Cc2n[nH]c(=O)c3ccccc23)ccc1F)N1CCN(C(=O)C2CC2)CC1 [Olaparib] (partner 8 µM)
An outline of the steps: as §1

Compound in experiment [3]: Cc1ccc(-n2nc(C(C)(C)C)cc2NC(=O)Nc2ccc(OCCN3CCOCC3)c3ccccc23)cc1 [Doramapimod] + CC(C)C[C@H](NC(=O)[C@H](Cc1ccccc1)NC(=O)c1cnccn1)B(O)O [Bortezomib] (partner 0.002 µM)
In a few lines:
as §1

Compound in experiment [4]: Cc1ccc(-n2nc(C(C)(C)C)cc2NC(=O)Nc2ccc(OCCN3CCOCC3)c3ccccc23)cc1 [Doramapimod] + Cc1nc(Nc2ncc(C(=O)Nc3c(C)cccc3Cl)s2)cc(N2CCN(CCO)CC2)n1 [Dasatinib] (partner 0.075 µM)
An outline of the steps:
as §1

Regarding UMC-11, the relative viability amounted to 0.682 in experiment [1] (first compound 0.2 µM); 0.759 in experiment [1] (first compound 0.6325 µM); 0.568 in experiment [1] (first compound 2 µM); 0.362 in experiment [1] (first compound 6.325 µM); 0.594 in experiment [1] (first compound 20 µM); 0.353 in experiment [2] (first compound 0.02 µM). Besides, the relative viability in experiment [2] (first compound 0.06325 µM) was determined as 0.348; in experiment [2] (first compound 0.2 µM), 0.274; in experiment [2] (first compound 0.6325 µM), 0.963; in experiment [2] (first compound 2 µM), 0.365; in experiment [3] (first compound 0.02 µM) it was 0.772; in experiment [3] (first compound 0.06325 µM) it was 0.784. Moreover, the relative viability in experiment [3] (first compound 0.2 µM) was 0.564; in experiment [3] (first compound 0.6325 µM), 0.675; in experiment [3] (first compound 2 µM), 0.568; in experiment [4] (first compound 0.02 µM), 0.435; in experiment [4] (first compound 0.06325 µM), 0.447; in experiment [4] (first compound 0.2 µM), 0.46. Also, the relative viability was found to be 0.52 in experiment [4] (first compound 0.6325 µM) and 0.368 in experiment [4] (first compound 2 µM).
